# Test results as given in patent publication EP3727588B1, “ACTIVATOR PEPTIDES OF THE ENZYME ADAM 10 AND RELATED USES IN THE TREATMENT OF ALZHEIMER'S DISEASE” (UNIVERSITA' DEGLI STUDI DI MILANO, priority 2017, dated 2019).
# Peptide text beside a SMILES is read from it.
# Experiment: Novel Object Recognition Test (NORT), C57BL/6 mice
# Type: in vivo
# Details: 14 days' treatment
# Procedure: C57/BL6 adult mice were treated for 14 days with daily intraperitoneal injection of saline solution or peptides at a dose of 3 nmol/g (6-10 animals per experimental group). The animals were maintained in an enclosure at 25 ± 2 °C with an alternating light/dark cycle of 12 hours and had free access to water and food in the form of pellets (standard diet).
# After 14 days of treatment the animals were subjected to the Novel Object Recognition Test (NORT). Such test is structured in three phases: habituation, familiarization and testing. In the first phase, the animal is placed in an empty arena and left free to explore the environment for 5 minutes. The day after, during the familiarization phase, the animal is placed in the same arena in the presence of two objects, identical in shape and size, for 10 minutes. Then the time spent by the animal exploring the individual object is recorded. On the third day, the animal is placed in the area in the presence of an identical object to that used in the familiarization phase and a new one. In this phase the difference in time spent by the animal exploring the familiar object and the new object is evaluated. […] In both phases of the test, the objects are positioned symmetrically and opposite inside the arena, and all the sessions are recorded with the aid of a video camera. […]
compound,measurement,value
N=C(N)NCCC[C@H](NC(=O)CNC(=O)[C@@H](N)Cc1ccc(O)cc1)C(=O)N[C@@H](CCCCN)C(=O)N[C@@H](CCCCN)C(=O)N[C@@H](CCCNC(=N)N)C(=O)N[C@@H](CCCNC(=N)N)C(=O)N[C@@H](CCC(N)=O)C(=O)N[C@@H](CCCNC(=N)N)C(=O)N[C@@H](CCCNC(=N)N)C(=O)N[C@@H](CCCNC(=N)N)C(=O)NCC(=O)NCC(=O)N[C@@H](CO)C(=O)NCC(=O)N[C@@H](CCC(N)=O)C(=O)N1CCC[C@H]1C(=O)N1CCC[C@H]1C(=O)N[C@@H](CCCNC(=N)N)C(=O)N[C@@H](CCC(N)=O)C(=O)N[C@@H](CCCNC(=N)N)C(=O)N1CCC[C@H]1C(=O)N[C@@H](CCCNC(=N)N)C(=O)NCC(=O)O [PEP3] (H-YGRKKRRQRRRGGSGQPPRQRPRG-OH),time exploring the new object,63.52 ± 4.69%
